These results are taken from patent US9593108B2, “Compounds and methods for antiviral treatment” (PTC Therapeutics, Inc., priority 2009, dated 2017).

Where only a bound is given, the exact number is not on record here.

Data set [1] has as its system HCV replicon RNA (GenBank Accession No. AJ242654). As to the kind of experiment: HCV Replicon Assay (replicon RNA reduction and/or Fluc reporter signal). Type of data set: cell-based, Hepatitis C virus. The following applies: Hepatitis C virus, 72 h, replicon-containing cells cultured with test compound for up to 3 days. The method, boiled down:
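IC50 values mostly reflect the drop in replicon RNA, though Fluc reporter signal may also be used. Compound incubated with cells carrying the bicistronic replicon for as long as 3 days; interferon served as positive control.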
(In general: In antiviral work, replicon cells carry a viral genome segment that copies itself.)

As to `C[C@H](NS(=O)(=O)c1ccc(-c2c(C#N)c3cc(Cl)cnc3n2-c2cnccn2)nc1)C(F)(F)F` [Cpd 307, 6-[5-chloro-3-cyano-1-(pyrazin-2-yl)-1H-pyrrolo[2,3-b]pyridin-2-yl]-N-[(2S)-1,1,1-trifluoropropan-2-yl]pyridine-3-sulfonamide], the melting point (in general, the temperature, or range, at which the solid turns liquid) lay in the range of 247 to 249 °C. Further, in data set [1], the IC50 – broadly, the midpoint of a concentration-inhibition curve – was under 0.5 µM.

Regarding `C[C@H](NS(=O)(=O)c1ccc(-c2c(C#N)c3cc(Cl)cnc3n2-c2ccccc2)nc1)C(F)(F)F` [Cpd 308, 6-(5-chloro-3-cyano-1-phenyl-1H-pyrrolo[2,3-b]pyridin-2-yl)-N-[(2S)-1,1,1-trifluoropropan-2-yl]pyridine-3-sulfonamide], the melting point is 211 to 213 °C. Moreover, in data set [1], the IC50 is under 0.5 µM.

`COc1cnc2c(c1)c(C#N)c(-c1ccc(S(=O)(=O)NC3CCC3)cn1)n2C1CCC1` [Cpd 309, 6-(3-cyano-1-cyclobutyl-5-methoxy-1H-pyrrolo[2,3-b]pyridin-2-yl)-N-cyclobutylpyridine-3-sulfonamide] showed a melting point of 203 to 207 °C. The compound further gave a half-maximal inhibitory concentration (IC50) in data set [1] of under 0.5 µM.

In turn, `COc1cnc2c(c1)c(C#N)c(-c1ccc(S(=O)(=O)NC3CC3)cn1)n2C1CCC1` [Cpd 310, 6-(3-cyano-1-cyclobutyl-5-methoxy-1H-pyrrolo[2,3-b]pyridin-2-yl)-N-cyclopropylpyridine-3-sulfonamide] registered a melting point of 161 to 162 °C. Also, the IC50 in data set [1] was under 0.5 µM.

On to `COc1cnc2c(c1)c(C#N)c(-c1ccc(S(=O)(=O)NC3(C)CC3)cn1)n2C1CCC1` [Cpd 311, 6-(3-cyano-1-cyclobutyl-5-methoxy-1H-pyrrolo[2,3-b]pyridin-2-yl)-N-(1-methylcyclopropyl)pyridine-3-sulfonamide], for which the melting point lay within 179 to 181 °C. The same compound yielded an IC50 in data set [1] of under 0.5 µM.

`COc1cnc2c(c1)c(C#N)c(-c1ncc(S(=O)(=O)NC3(C)CC3)cn1)n2C1CCC1` [Cpd 313, 2-(3-cyano-1-cyclobutyl-5-methoxy-1H-pyrrolo[2,3-b]pyridin-2-yl)-N-(1-methylcyclopropyl)pyrimidine-5-sulfonamide]: the melting point lay in the range of 209 to 212 °C. This compound also displayed an IC50 in data set [1] of under 0.5 µM.

As for `C[C@H](NS(=O)(=O)c1ccc(-c2c(C#N)c3cc(C(F)(F)F)cnc3n2-c2cnccn2)nc1)C(F)(F)F` [Cpd 316, 6-[3-cyano-1-(pyrazin-2-yl)-5-(trifluoromethyl)-1H-pyrrolo[2,3-b]pyridin-2-yl]-N-[(2S)-1,1,1-trifluoropropan-2-yl]pyridine-3-sulfonamide], the melting point is 226 to 228 °C. The compound also returned an IC50 in data set [1] of under 0.5 µM.

For `C[C@H](NS(=O)(=O)c1ccc(-c2c(C#N)c3cc(C(F)(F)F)cnc3n2-c2ccccn2)nc1)C(F)(F)F` [Cpd 317, 6-[3-cyano-1-(pyridin-2-yl)-5-(trifluoromethyl)-1H-pyrrolo[2,3-b]pyridin-2-yl]-N-[(2S)-1,1,1-trifluoropropan-2-yl]pyridine-3-sulfonamide], the melting point is 110 to 112 °C. This compound showed an IC50 in data set [1] of under 0.5 µM.

Compound `C[C@H](NS(=O)(=O)c1ccc(-c2c(C#N)c3cc(C(F)(F)F)cnc3n2-c2ccccc2)nc1)C(F)(F)F` [Cpd 318, 6-[3-cyano-1-phenyl-5-(trifluoromethyl)-1H-pyrrolo[2,3-b]pyridin-2-yl]-N-[(2S)-1,1,1-trifluoropropan-2-yl]pyridine-3-sulfonamide] had a melting point of 186 to 188 °C. This compound returned an IC50 in data set [1] of under 0.5 µM.

Regarding `C[C@H](NS(=O)(=O)c1ccc(-c2c(C#N)c3cc(F)cnc3n2-c2ncccn2)nc1)C(F)(F)F` [Cpd 320, 6-[3-cyano-5-fluoro-1-(pyrimidin-2-yl)-1H-pyrrolo[2,3-b]pyridin-2-yl]-N-[(2S)-1,1,1-trifluoropropan-2-yl]pyridine-3-sulfonamide], the melting point was 171 to 173 °C. The compound further had an IC50 in data set [1] of under 0.5 µM.

`C[C@H](NS(=O)(=O)c1ccc(-c2c(C#N)c3cc(F)cnc3n2-c2cnccn2)nc1)C(F)(F)F` [Cpd 321, 6-[3-cyano-5-fluoro-1-(pyrazin-2-yl)-1H-pyrrolo[2,3-b]pyridin-2-yl]-N-[(2S)-1,1,1-trifluoropropan-2-yl]pyridine-3-sulfonamide]: the melting point was 212 to 214 °C. This compound showed an IC50 in data set [1] of under 0.5 µM.

`C[C@H](NS(=O)(=O)c1ccc(-c2c(C#N)c3cc(F)cnc3n2-c2ccccn2)nc1)C(F)(F)F` [Cpd 322, 6-[3-cyano-5-fluoro-1-(pyridin-2-yl)-1H-pyrrolo[2,3-b]pyridin-2-yl]-N-[(2S)-1,1,1-trifluoropropan-2-yl]pyridine-3-sulfonamide]: the melting point lay in the range of 229 to 231 °C. This compound also had an IC50 in data set [1] of under 0.5 µM.

`CSc1cnc2c(c1)c(C#N)c(-c1ccc(S(=O)(=O)N[C@@H](C)C(F)(F)F)cn1)n2C1CCC1` [Cpd 323, 6-[3-cyano-1-cyclobutyl-5-(methylsulfanyl)-1H-pyrrolo[2,3-b]pyridin-2-yl]-N-[(2S)-1,1,1-trifluoropropan-2-yl]pyridine-3-sulfonamide] had a melting point of 154 to 158 °C. Moreover, the IC50 in data set [1] was under 0.5 µM.

The compound `C[C@H](NS(=O)(=O)c1ccc(-c2c(C(N)=O)c3cc(Cl)cnc3n2C2CCCC2)nc1)C(F)(F)F` [Cpd 324, 5-chloro-1-cyclopentyl-2-(5-{[(2S)-1,1,1-trifluoropropan-2-yl]sulfamoyl}pyridin-2-yl)-1H-pyrrolo[2,3-b]pyridine-3-carboxamide] registered a melting point of 289 to 295 °C. This compound also yielded an IC50 in data set [1] of under 0.5 µM.

As for `NC(=O)c1c(-c2ccc(S(=O)(=O)NC3(C(F)(F)F)CC3)cn2)n(C2CCC2)c2ncc(Cl)cc12` [Cpd 325, 5-chloro-1-cyclobutyl-2-(5-{[1-(trifluoromethyl)cyclopropyl]sulfamoyl}pyridin-2-yl)-1H-pyrrolo[2,3-b]pyridine-3-carboxamide], the melting point was in the range of 238 to 240 °C. The IC50 in data set [1] was under 0.5 µM.

In turn, `CC(C)(NS(=O)(=O)c1ccc(-c2c(C(N)=O)c3cc(Cl)cnc3n2C2CCC2)nc1)C(F)(F)F` [Cpd 326, 5-chloro-1-cyclobutyl-2-{5-[(1,1,1-trifluoro-2-methylpropan-2-yl)sulfamoyl]pyridin-2-yl}-1H-pyrrolo[2,3-b]pyridine-3-carboxamide] returned a melting point of 239 to 241 °C. Also, in data set [1], the IC50 was under 0.5 µM.

Consider `CC(C)(C)NS(=O)(=O)c1ccc(-c2c(C(N)=O)c3cc(Cl)cnc3n2C2CCC2)nc1` [Cpd 327, 2-[5-(tert-butylsulfamoyl)pyridin-2-yl]-5-chloro-1-cyclobutyl-1H-pyrrolo[2,3-b]pyridine-3-carboxamide], for which the melting point was 240 to 241 °C. In data set [1], this compound gave an IC50 of under 0.5 µM.

On to `NC(=O)c1c(-c2ccc(S(=O)(=O)NC3(C(F)(F)F)CC3)cc2)n(C2CCC2)c2ncc(Cl)cc12` [Cpd 328, 5-chloro-1-cyclobutyl-2-(4-{[1-(trifluoromethyl)cyclopropyl]sulfamoyl}phenyl)-1H-pyrrolo[2,3-b]pyridine-3-carboxamide], for which the melting point is 271 to 272 °C. The same compound came in with an IC50 in data set [1] of under 0.5 µM.

On to `CC(C)(NS(=O)(=O)c1ccc(-c2c(C(N)=O)c3cc(Cl)cnc3n2C2CCC2)cc1)C(F)(F)F` [Cpd 329, 5-chloro-1-cyclobutyl-2-{4-[(1,1,1-trifluoro-2-methylpropan-2-yl)sulfamoyl]phenyl}-1H-pyrrolo[2,3-b]pyridine-3-carboxamide], for which the melting point lay within 263 to 265 °C. This compound displayed an IC50 in data set [1] of under 0.5 µM.
